Measurements from the NIST ThermoML archive (doi:10.1016/j.tca.2016.08.021).

Legend:
[1] = xn = mol fraction of the nth substance listed; details: 100 kPa, Liquid; for viscosity: Capillary tube (Ostwald / Ubbelohde) method; for mass density: Vibrating tube method
[2] = 100 kPa, Liquid; for viscosity: Capillary tube (Ostwald / Ubbelohde) method; for mass density: Vibrating tube method

CCN(CC)CCO [(diethylamino)ethanol] + CCNCCO
[1], x1 = 1
Details	mass density [kg/m3]	viscosity [mPa·s]
293.15 K	883.5	4.81
303.15 K	875.1	3.37
313.15 K	866.2	2.46
323.15 K	857.5	1.86
333.15 K	849.2	1.46

CCNCCO [2-(ethylamino)ethanol]
[2]
Details	mass density [kg/m3]	viscosity [mPa·s]
293.15 K	916.8	15.39
303.15 K	909.7	9.65
313.15 K	901.3	6.64
323.15 K	894.7	4.53
333.15 K	887.2	3.36

O [water] + CCNCCO
[1], x1 = 1
Details	mass density [kg/m3]	viscosity [mPa·s]
293.15 K	998	1.01
303.15 K	995.1	0.8
313.15 K	–	0.65
323.15 K	989.2	0.55
333.15 K	985	0.47

CCN(CC)CCO [(diethylamino)ethanol]
[2]
Details	mass density [kg/m3]	viscosity [mPa·s]
293.15 K	883.5	4.81
303.15 K	875.1	3.37
313.15 K	866.2	2.46
323.15 K	857.5	1.86
333.15 K	849.2	1.46

CCNCCO [2-(ethylamino)ethanol] + CCN(CC)CCO
[1]
Details	mass density, 293.15 K [kg/m3]	mass density, 303.15 K [kg/m3]	mass density, 313.15 K [kg/m3]	mass density, 323.15 K [kg/m3]	mass density, 333.15 K [kg/m3]	viscosity, 293.15 K [mPa·s]	viscosity, 303.15 K [mPa·s]	viscosity, 313.15 K [mPa·s]	viscosity, 323.15 K [mPa·s]	viscosity, 333.15 K [mPa·s]
x2 = 0	916.8	909.7	901.3	894.7	887.2	15.39	9.65	6.64	4.53	3.36
x2 = 0.2	910	903	894.8	887.8	880.6	12.19	7.84	5.35	3.85	2.88
x2 = 0.4	903	895.5	887.6	880	872.1	9.87	6.51	4.5	3.3	2.48
x2 = 0.6	897	889	880.2	872.2	864.3	8.04	5.4	3.78	2.8	2.14
x2 = 0.8	889.7	881.6	873	864.6	856.4	6.36	4.36	3.11	2.31	1.79

CCNCCO [2-(ethylamino)ethanol] + O
[1]
Details	mass density, 293.15 K [kg/m3]	mass density, 303.15 K [kg/m3]	mass density, 313.15 K [kg/m3]	mass density, 323.15 K [kg/m3]	mass density, 333.15 K [kg/m3]	viscosity, 293.15 K [mPa·s]	viscosity, 303.15 K [mPa·s]	viscosity, 313.15 K [mPa·s]	viscosity, 323.15 K [mPa·s]	viscosity, 333.15 K [mPa·s]
x2 = 0	916.8	909.7	901.3	894.7	887.2	15.39	9.65	6.64	4.53	3.36
x2 = 0.2	929.5	922.4	914	907.4	898.6	23.82	14.54	9.29	6.23	4.52
x2 = 0.4	943.1	936.1	927.8	920.7	912	31.73	18.56	11.41	7.3	5.03
x2 = 0.6	961.6	954.8	946	938.7	931.1	31.02	17.34	10.71	7.08	4.68
x2 = 0.8	985.7	979.5	972.5	963	955.6	13.83	8.34	5.44	3.73	2.69
